Experimental data taken from paper PMC6941823, “A dispensable paralog of succinate dehydrogenase subunit C mediates standing resistance towards a subclass of SDHI fungicides in Zymoseptoria tritici” (PLoS Pathogens, 2019).
Where two headings read alike, the source gives them in different places.

Assays:
[1] = system: Zymoseptoria tritici field and genetically modified strains; test: Liquid culture assay for fungicide sensitivity determination; type: cell-based; conditions: liquid culture sensitivity, read-out: EC50 (nM) Mean
Method: Sensitivity towards commercial fungicides was determined for a set of 99 SHA-SDHI-naïve Z. tritici field isolates sampled in Europe between 2006 and 2009. The EC50 of these isolates was determined in liquid growth assays and the data obtained compared for each possible pair of SDHI fungicides (cross-resistance (XR) plots, Fig 1). […] Comparative succinate-quinone reductase (SQR) enzyme inhibition tests were performed with mitochondria extracted from a panel of SHA-SDHIs tolerant and sensitive isolates.
In order to characterize in more depth the mechanisms driving sensitivity differences across the isolates, a subset of eight isolates carrying the ZtSDHC3 gene was analyzed for their sensitivity to SDHIs, alt-SDHC expression and splicing patterns. Liquid culture growth sensitivity tests were performed to determine EC50s for this set of isolates towards a wide range of commercial and research SDHIs (S5 Table).
Pre-culture of the inoculum and fungicide sensitivity tests were performed following previously described procedures. Different ranges of inhibitor concentrations were used for population monitoring and for the detailed phenotyping of a selected set of individual field isolates and genetically modified strains. For fungicide sensitivity monitoring of European field populations, final inhibitors concentrations were between 100 mg.L^-1 and 0.0001 mg.L^-1 with uniform 10x dilution steps (7 inhibitor concentrations + DMSO control). For refined sensitivity analysis of a smaller panel of isolates final inhibitor concentrations ranged between 0.5 mM and 0.47 nM with uniform 4x dilution factor steps (11 inhibitor concentrations+ DMSO control).

[2] = biological target: altC-SQR (altC) of D024 SDHC1 KO mitochondria (Zymoseptoria tritici, UniProt A0A1X7RQW2+F9X9V6+O42772); test: Succinate-quinone (SQR) SDHI sensitivity assay on purified mitochondria, 06STD024 SDHC1 KO; type: biochemical; conditions: for RF (resistance factor), D024 SDHC1 KO (altC): IC50 ratio compared to IPO323 values; for IC50: mitochondria of 06STD024 ZtSDHC1 deletion mutant (pure altC-SQR), mean of three ± SD
Sequence of altC-SQR (altC) of D024 SDHC1 KO mitochondria (A0A1X7RQW2 36-181): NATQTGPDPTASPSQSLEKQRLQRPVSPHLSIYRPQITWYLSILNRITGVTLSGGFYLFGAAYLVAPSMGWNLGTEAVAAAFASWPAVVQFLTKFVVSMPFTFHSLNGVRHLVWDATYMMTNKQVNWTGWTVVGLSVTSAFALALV
Sequence of altC-SQR (altC) of D024 SDHC1 KO mitochondria (O42772 20-297): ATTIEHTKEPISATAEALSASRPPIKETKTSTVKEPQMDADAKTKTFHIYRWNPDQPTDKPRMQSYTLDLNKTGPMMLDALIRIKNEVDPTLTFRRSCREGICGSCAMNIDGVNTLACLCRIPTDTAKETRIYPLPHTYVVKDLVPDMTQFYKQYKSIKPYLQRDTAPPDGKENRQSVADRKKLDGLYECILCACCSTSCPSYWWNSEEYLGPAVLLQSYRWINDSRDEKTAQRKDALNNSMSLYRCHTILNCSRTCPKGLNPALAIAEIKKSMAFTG
Sequence of altC-SQR (altC) of D024 SDHC1 KO mitochondria (F9X9V6 1-193): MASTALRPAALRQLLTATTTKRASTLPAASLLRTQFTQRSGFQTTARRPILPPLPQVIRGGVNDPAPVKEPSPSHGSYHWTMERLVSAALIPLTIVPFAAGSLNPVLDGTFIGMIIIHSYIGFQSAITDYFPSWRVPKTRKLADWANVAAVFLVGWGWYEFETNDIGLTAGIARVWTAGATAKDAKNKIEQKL
Sequence of altC-SQR (altC) of D024 SDHC1 KO mitochondria (F9WWR1 41-643 partner): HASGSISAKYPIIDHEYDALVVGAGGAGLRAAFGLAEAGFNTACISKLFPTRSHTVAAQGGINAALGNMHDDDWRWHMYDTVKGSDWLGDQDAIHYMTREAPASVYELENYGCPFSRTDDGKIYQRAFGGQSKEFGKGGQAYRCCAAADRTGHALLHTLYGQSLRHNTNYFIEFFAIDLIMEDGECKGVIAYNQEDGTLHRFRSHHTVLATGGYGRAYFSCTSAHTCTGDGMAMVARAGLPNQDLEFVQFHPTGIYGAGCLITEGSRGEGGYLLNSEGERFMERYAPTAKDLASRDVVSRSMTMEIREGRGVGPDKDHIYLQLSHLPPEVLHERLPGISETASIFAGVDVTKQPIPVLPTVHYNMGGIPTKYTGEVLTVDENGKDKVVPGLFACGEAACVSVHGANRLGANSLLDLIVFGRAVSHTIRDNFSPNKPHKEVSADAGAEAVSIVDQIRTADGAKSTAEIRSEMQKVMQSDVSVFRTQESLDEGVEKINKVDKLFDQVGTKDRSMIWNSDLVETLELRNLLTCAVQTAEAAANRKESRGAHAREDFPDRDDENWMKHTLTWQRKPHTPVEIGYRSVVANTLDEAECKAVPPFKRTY
Method: (§1) Succinate-ubiquinone oxidoreductase (SQR) inhibition assays were performed on mitochondrial extracts from a panel of strains that were (i) either carrying a unique C-subunit encoding gene (ZtSDHC1, ZtSDHC1_A84I or Zt-SDHC3), or (ii) carrying two C-subunit encoding genes ZtSDHC1 and ZtSDHC3 (Table 1).
(§2) Biomass production, mitochondrial extraction and purification were performed as described in [14]. Succinate: ubiquinone/DCPIP sensitivity tests were performed as described in [14] with minor modification.

[3] = biological target: WT-SQR (SDHC), IPO323 mitochondria (Zymoseptoria tritici, UniProt F9X9V6+F9XH52+O42772); test: Succinate-quinone (SQR) SDHI sensitivity assay on purified mitochondria, IPO323; type: biochemical; conditions: mitochondria of IPO323; mean of three determinations ± SD; read-out: Succinate-quinone IC50, IPO323 (SDHC)
Method: as §1
(§3) Biomass production, mitochondrial extraction and purification were performed as described in [14]. Succinate: ubiquinone/DCPIP sensitivity tests were performed as described in [14] with minor modification. The different mitochondrial suspensions were adjusted to similar initial velocity (1 OD595nm hour^-1) and inhibitor concentrations ranged between 0.047nM and 50μM with uniform 4x dilution steps (11 concentrations + DMSO control). Calculated absorbance slopes (OD/min) were used for IC50 calculations using GraphPad Prism 6.07 software non-linear curve fitting against log inhibitor concentrations.

[4] = biological target: SQR (SDHC / altC) of IPO323 pTet::SDHC3 transformant, repressed (Zymoseptoria tritici, UniProt A0A1X7RQW2+F9X9V6+F9XH52+O42772); test: Succinate-quinone (SQR) SDHI sensitivity assay on purified mitochondria, IPO323 pTet::SDHC3 repressed; type: biochemical; conditions: for RF (resistance factor), pTet Repressed (SDHC / altC): IC50 ratio compared to IPO323 values; for IC50: IPO323 pTet::SDHC3 transformant grown in presence of 30 mg.L^-1 doxycycline, mean of three ± SD
Method: as §1, §2

[5] = biological target: SQR of 06STD024 (SDHC / altC) mitochondria (Zymoseptoria tritici, UniProt A0A1X7RQW2+F9X9V6+F9XH52+O42772); test: Succinate-quinone (SQR) SDHI sensitivity assay on purified mitochondria, 06STD024; type: biochemical; conditions: for RF (resistance factor), 06STD024 (SDHC / altC): IC50 ratio compared to IPO323 values; for IC50: mitochondria of field isolate 06STD024, mean of three ± SD
Sequence of SQR of 06STD024 (SDHC / altC) mitochondria (A0A1X7RQW2 36-181): as the sequence (A0A1X7RQW2 36-181) above
Sequence of SQR of 06STD024 (SDHC / altC) mitochondria (O42772 19-297): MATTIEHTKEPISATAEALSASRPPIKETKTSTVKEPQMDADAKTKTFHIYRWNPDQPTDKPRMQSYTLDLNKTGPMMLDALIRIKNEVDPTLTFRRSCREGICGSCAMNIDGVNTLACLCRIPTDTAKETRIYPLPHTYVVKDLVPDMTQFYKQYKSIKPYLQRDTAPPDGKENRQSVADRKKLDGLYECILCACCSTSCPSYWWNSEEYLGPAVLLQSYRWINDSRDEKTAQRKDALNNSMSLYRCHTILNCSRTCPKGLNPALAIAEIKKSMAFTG
Sequence of SQR of 06STD024 (SDHC / altC) mitochondria (F9X9V6 1-193): as the sequence (F9X9V6 1-193) above
Sequence of SQR of 06STD024 (SDHC / altC) mitochondria (F9XH52 44-187): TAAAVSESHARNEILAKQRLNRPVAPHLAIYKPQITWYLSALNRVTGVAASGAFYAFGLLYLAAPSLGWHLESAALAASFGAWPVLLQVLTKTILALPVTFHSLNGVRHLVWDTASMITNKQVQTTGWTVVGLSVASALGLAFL
Sequence of SQR of 06STD024 (SDHC / altC) mitochondria (F9WWR1 29-643 partner): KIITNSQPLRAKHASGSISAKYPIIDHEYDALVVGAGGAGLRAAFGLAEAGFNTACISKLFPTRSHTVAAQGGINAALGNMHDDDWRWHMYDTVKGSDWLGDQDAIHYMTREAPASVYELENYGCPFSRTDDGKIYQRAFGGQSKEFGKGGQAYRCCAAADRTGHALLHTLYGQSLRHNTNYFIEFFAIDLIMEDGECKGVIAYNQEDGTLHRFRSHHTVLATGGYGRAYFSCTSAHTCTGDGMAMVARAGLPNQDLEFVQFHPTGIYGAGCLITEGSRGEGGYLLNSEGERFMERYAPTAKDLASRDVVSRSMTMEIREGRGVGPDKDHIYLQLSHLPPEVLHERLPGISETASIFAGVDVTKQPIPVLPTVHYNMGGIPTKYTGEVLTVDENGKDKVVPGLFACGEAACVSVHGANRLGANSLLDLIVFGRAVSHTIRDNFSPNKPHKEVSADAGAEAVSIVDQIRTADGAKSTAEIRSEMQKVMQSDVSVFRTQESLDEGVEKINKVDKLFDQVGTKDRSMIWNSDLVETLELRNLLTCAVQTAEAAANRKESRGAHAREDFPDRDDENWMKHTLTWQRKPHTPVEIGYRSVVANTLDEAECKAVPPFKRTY
Method: as §1, §2

[6] = system: SQR (SDHC / altC) of IPO323 pTet::SDHC3 transformant, induced; test: Succinate-quinone (SQR) SDHI sensitivity assay on purified mitochondria, IPO323 pTet::SDHC3 induced; type: biochemical, Zymoseptoria tritici; conditions: for RF (resistance factor), pTet Induced (SDHC / altC): IC50 ratio compared to IPO323 values; for IC50: IPO323 pTet::SDHC3 transformant grown in the absence of doxycycline, mean of three ± SD
Method: as §1, §2

[7] = biological target: C_A84I-SQR (SDHC_A84I), IPO323_Flu21 mitochondria (Zymoseptoria tritici, UniProt F9X9V6+F9XH52+O42772, A84I); test: Succinate-quinone (SQR) SDHI sensitivity assay on purified mitochondria, IPO323_Flu21; type: biochemical; conditions: for RF (resistance factor), IPO323_Flu21 (SDHC_A84I): IC50 ratio compared to IPO323 values; for IC50: mitochondria of UV mutant IPO323_Flu21, mean of three ± SD
Method: as §1, §3

[8] = biological target: SQR (SDHC) of D024 SDHC3 KO mitochondria (Zymoseptoria tritici, UniProt F9X9V6+F9XH52+O42772); test: Succinate-quinone (SQR) SDHI sensitivity assay on purified mitochondria, 06STD024 SDHC3 KO; type: biochemical; conditions: for RF (resistance factor), D024 SDHC3 KO (SDHC): IC50 ratio compared to IPO323 values; for IC50: mitochondria of 06STD024 ZtSDHC3 deletion mutant, mean of three ± SD
Sequence of SQR (SDHC) of D024 SDHC3 KO mitochondria (F9XH52 44-187): as the sequence (F9XH52 44-187) above
Sequence of SQR (SDHC) of D024 SDHC3 KO mitochondria (O42772 19-297): as the sequence (O42772 19-297) above
Sequence of SQR (SDHC) of D024 SDHC3 KO mitochondria (F9X9V6 1-193): as the sequence (F9X9V6 1-193) above
Sequence of SQR (SDHC) of D024 SDHC3 KO mitochondria (F9WWR1 29-643 partner): as the sequence (F9WWR1 29-643 partner) above
Method: as §1, §3

Row | Structure (SMILES) | EC50 ([1]; strain 06STD024) [nM] | EC50 ([1]; strain 07STGB009) [nM] | EC50 ([1]; strain 09STD041) [nM] | EC50 ([1]; strain 09STD053) [nM] | EC50 ([1]; strain 09STF011) [nM] | EC50 ([1]; strain 09STF037) [nM] | EC50 ([1]; strain 09STF112) [nM] | EC50 ([1]; strain 09STIR20.3) [nM] | EC50 ([1]; strain Flu21 (SDHC1_A84I)) [nM] | EC50 ([1]; strain IPO323) [nM] | EC50 ([1]; strain IPO94269) [nM] | EC50 ([1]; strain KO_SDHC1_T1) [nM] | EC50 ([1]; strain KO_SDHC1_T3) [nM] | EC50 ([1]; strain KO_SDHC3_T4) [nM] | EC50 ([1]; strain KO_SDHC3_T13) [nM] | EC50 ([1]; strain pTet::SDHC3_I78A_T1) [nM] | EC50 ([1]; strain pTet::SDHC3_I78A_T5) [nM] | EC50 ([1]; strain pTet::SDHC3_I78A_T15) [nM] | EC50 ([1]; strain pTet::SDHC3_I78A_T35) [nM] | EC50 ([1]; strain pTet::SDHC3_T1) [nM] | other results
1 | Cn1cc(C(=O)Nc2ccccc2-c2cc(F)c(F)c(F)c2)c(C(F)F)n1 [Fluxapyroxad] | 83.2 | 72.2 | 142 | 132 | 119 | 110 | 152 | 295 | 818 | 102 | 121 | 438 | 361 | 216 | 144 | 115 | 265 | 145 | 79.5 | 148 | EC50 ([1]; strain pTet::SDHC3_T2): 129 nM; EC50 ([1]; strain pTet::SDHC3_T3): 102 nM; EC50 ([1]; strain pTet::SDHC3_T7): 197 nM; RF (resistance factor), D024 SDHC1 KO (altC) [2]: 0.7; IC50 [2]: 3.1 ± 0.4 nM; IC50 [3]: 4.3 ± 1.1 nM; RF (resistance factor), pTet Repressed (SDHC / altC) [4]: 1.1; IC50 [4]: 4.5 ± 1 nM; RF (resistance factor), 06STD024 (SDHC / altC) [5]: 0.8; IC50 [5]: 3.5 ± 0.3 nM; RF (resistance factor), pTet Induced (SDHC / altC) [6]: 0.8; IC50 [6]: 3.3 ± 0.6 nM; RF (resistance factor), IPO323_Flu21 (SDHC_A84I) [7]: 1.2; IC50 [7]: 5.1 ± 0.7 nM; RF (resistance factor), D024 SDHC3 KO (SDHC) [8]: 0.8; IC50 [8]: 3.3 ± 0.8 nM
2 | Cn1cc(C(=O)Nc2ccc(F)cc2-c2ccc(Cl)c(Cl)c2)c(C(F)F)n1 [Bixafen] | 83.8 | 102 | 219 | 102 | 70.1 | 111 | 171 | 204 | 959 | 106 | 109 | 710 | 447 | 204 | 180 | 94.3 | 174 | 104 | 27.7 | 141 | EC50 ([1]; strain pTet::SDHC3_T2): 185 nM; EC50 ([1]; strain pTet::SDHC3_T3): 120 nM; EC50 ([1]; strain pTet::SDHC3_T7): 192 nM; RF (resistance factor), D024 SDHC1 KO (altC) [2]: 1.5; IC50 [2]: 2.1 ± 0.6 nM; IC50 [3]: 1.4 ± 0.1 nM; RF (resistance factor), pTet Repressed (SDHC / altC) [4]: 1.1; IC50 [4]: 1.5 ± 0.6 nM; RF (resistance factor), 06STD024 (SDHC / altC) [5]: 1.3; IC50 [5]: 1.8 ± 0.7 nM; RF (resistance factor), pTet Induced (SDHC / altC) [6]: 1.3; IC50 [6]: 1.8 ± 0.4 nM; RF (resistance factor), IPO323_Flu21 (SDHC_A84I) [7]: 2.3; IC50 [7]: 3.2 ± 0.5 nM; RF (resistance factor), D024 SDHC3 KO (SDHC) [8]: 1.0; IC50 [8]: 1.3 ± 0.2 nM
3 | CC(C)C1C2CCC1c1c(NC(=O)c3cn(C)nc3C(F)F)cccc12 (stereo not drawn) [Isopyrazam] | 108 | 75.5 | 116 | 56 | 109 | 46.1 | 66.2 | 112 | 785 | 46 | 72.8 | 332 | 293 | 83.7 | 96.7 | 60.4 | 120 | 81.1 | 17 | 195 | EC50 ([1]; strain pTet::SDHC3_T2): 284 nM; EC50 ([1]; strain pTet::SDHC3_T3): 175 nM; EC50 ([1]; strain pTet::SDHC3_T7): 233 nM; RF (resistance factor), D024 SDHC1 KO (altC) [2]: 2.9; IC50 [2]: 2.4 ± 0.5 nM; IC50 [3]: 0.8 ± 0.1 nM; RF (resistance factor), pTet Repressed (SDHC / altC) [4]: 1.5; IC50 [4]: 1.2 ± 0.3 nM; RF (resistance factor), 06STD024 (SDHC / altC) [5]: 3.3; IC50 [5]: 2.6 ± 0.6 nM; RF (resistance factor), pTet Induced (SDHC / altC) [6]: 2.1; IC50 [6]: 1.7 ± 0.4 nM; RF (resistance factor), IPO323_Flu21 (SDHC_A84I) [7]: 6.4; IC50 [7]: 5.2 ± 2.6 nM; RF (resistance factor), D024 SDHC3 KO (SDHC) [8]: 0.7; IC50 [8]: 0.6 ± 0.2 nM
4 | Cn1cc(C(=O)Nc2cccc3c2[C@@H]2CC[C@H]3C2=C(Cl)Cl)c(C(F)F)n1 (racemic) [Benzovindiflupyr] | 17 | 15 | 54 | 88 | 96 | 54 | 204 | 147 | 927 | 39 | 108 | 59 | 40 | 93 | 90 | 28 | 87 | 47 | 20 | 40 | EC50 ([1]; strain pTet::SDHC3_T2): 44 nM; EC50 ([1]; strain pTet::SDHC3_T3): 30 nM; EC50 ([1]; strain pTet::SDHC3_T7): 50 nM; RF (resistance factor), D024 SDHC1 KO (altC) [2]: 0.9; IC50 [2]: 0.6 ± 0.05 nM; IC50 [3]: 0.7 ± 0.2 nM; RF (resistance factor), pTet Repressed (SDHC / altC) [4]: 0.8; IC50 [4]: 0.5 ± 0.03 nM; RF (resistance factor), 06STD024 (SDHC / altC) [5]: 0.8; IC50 [5]: 0.5 ± 0.17 nM; RF (resistance factor), pTet Induced (SDHC / altC) [6]: 0.8; IC50 [6]: 0.5 ± 0.09 nM; RF (resistance factor), IPO323_Flu21 (SDHC_A84I) [7]: 1.4; IC50 [7]: 1 ± 0.2 nM; RF (resistance factor), D024 SDHC3 KO (SDHC) [8]: 0.8; IC50 [8]: 0.6 ± 0.11 nM
